Measured values published in patent publication US10005817B2, “Peptide pharmaceuticals” (EUMEDERIS PHARMACEUTICALS, INC., priority 2012, dated 2018).
“Also recorded” adds a separate entry of the source. Non-standard residues stand in square brackets, D forms with d. Residues, ends and D or L forms follow the SMILES beside them. *: point of attachment. GlcA(β-D,1-O-dodecyl) = CCCCCCCCCCCCO[C@@H]1O[C@H](C(=O)*)[C@@H](O)[C@H](O)[C@H]1O; βGlcA(1-OMe) = CO[C@@H]1O[C@H](C(=O)*)[C@@H](O)[C@H](O)[C@H]1O; Dmt = Cc1cc(O)cc(C)c1C[C@H](N)C(=O)O; hArg = N=C(N)NCCCC[C@H](N)C(=O)O; Tic = O=C(O)[C@@H]1Cc2ccccc2CN1; Nle = CCCC[C@H](N)C(=O)O; Ac5c = NC1(C(=O)O)CCCC1; Aib = CC(C)(N)C(=O)O

Key:
PTH receptor (PTHR1) = target: T1, PTH receptor (PTHR1) (Homo sapiens, UniProt Q03431); experiment: PTH1 cellular assay, antagonist mode with added PTHrP; format: cell-based; settings: read-out: maximal effects in antagonist mode
T1 construct: Cerep SA
T1 sequence (Q03431 27-593): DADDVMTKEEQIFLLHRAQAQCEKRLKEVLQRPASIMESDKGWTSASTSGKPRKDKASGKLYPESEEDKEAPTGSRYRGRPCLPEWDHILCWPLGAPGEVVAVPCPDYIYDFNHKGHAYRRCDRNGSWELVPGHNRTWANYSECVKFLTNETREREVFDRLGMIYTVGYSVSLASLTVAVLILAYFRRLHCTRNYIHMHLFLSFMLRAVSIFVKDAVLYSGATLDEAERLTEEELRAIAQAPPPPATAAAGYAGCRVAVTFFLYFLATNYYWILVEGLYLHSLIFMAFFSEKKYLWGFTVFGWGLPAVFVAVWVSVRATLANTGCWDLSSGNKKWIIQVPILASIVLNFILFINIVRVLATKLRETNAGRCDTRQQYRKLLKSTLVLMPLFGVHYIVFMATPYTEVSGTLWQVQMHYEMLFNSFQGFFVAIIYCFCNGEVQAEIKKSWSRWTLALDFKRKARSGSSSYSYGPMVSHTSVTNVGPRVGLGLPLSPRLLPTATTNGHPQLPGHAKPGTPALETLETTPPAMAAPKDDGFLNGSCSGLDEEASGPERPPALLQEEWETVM
Protocol: Compounds were weighed precisely in an amount of approximately 1 mg and assayed in standard cellular assays (cerep SA). The readout is the amount of cAMP generated in the cells treated with the test compounds, in either agonist or antagonist mode. The PTH1 cellular assay used is described in Orloff, J. J., et al. (1992) Endocrinol 131: 1603-1611.
Modifications elsewhere in the molecule can be used to further modify the potency and character of the interaction of the drug candidates.

mu opioid receptor = target: T2, mu opioid receptor (Homo sapiens, UniProt P35372); experiment: mu opioid receptor cellular assay (MOP), agonist mode, cAMP readout (Cerep); format: cell-based
T2 construct: Cerep

delta2 opioid receptor = target: T3, delta2 opioid receptor (Mus musculus, UniProt P32300); experiment: delta2 opioid receptor cellular assay (DOP), antagonist mode vs DPDPE, cAMP readout; format: cell-based
T3 construct: Cerep
Protocol: Compounds were weighed precisely in an amount of approximately 2 mg and assayed in standard cellular assays by the contract research organization Cerep, Inc. (Pullman, Wash.) as executed at their subsidiary, Cerep SA (Le Bois l'Eveque, France). The readout is the amount of cAMP generated in the cells treated with the test compounds, in either agonist or antagonist mode. The assays used were the mu opioid receptor cellular assay (MOP in agonist and antagonist mode), the delta2 opioid receptor cellular assay (DOP in agonist and antagonist mode) and the kappa opioid receptor cellular assay (KOP in agonist and antagonist mode). The assays used are described in Wang, J. B., et al. (1994) FEBS Lett 338: 217-222, Law, P. Y. and Loh, H. H. (1993) Mol Pharmacol 43: 684-693, and Avidor-Reiss, T., et al. (1995) FEBS Lett 361: 70-74. The stimulant for the cells in the DOR antagonist assay was 3×10E-8M DPDPE, a well-accepted DOR literature standard.

[1] = system: λ-carrageenan-induced inflammatory pain; experiment: λ-carrageenan-induced inflammatory pain model, paw pressure threshold (Randall-Selitto); format: in vivo, rat; settings: rats, i.pl., 24 h after carrageenan; beyond 30 min
Protocol: Adult male Sprague-Dawley rats were briefly anesthetized with isoflurane, and unilateral hind paw inflammatory pain was induced by injecting […] of λ-carrageenan. A λ-carrageenan injection into the left hind paw produces redness and edema. These alterations were observed within 6 h after induction of inflammation and peaked by 24 h. Further, the changes were confined to the carrageenan treated paw.
Changes in Paw Pressure Thresholds (PPT), a measurement of nociception and antinociception, was evaluated using a digital Randall-Selitto method. Briefly, animals are gently restrained and incremental pressure (maximum 350 g) was applied onto the dorsal surface of the hindpaw. The pressure required to elicit paw withdrawal, PPT, was determined. Paw-thickness, the indicator of inflammation, was measured using digital calipers. 24 h after induction of inflammation, rats received either saline, positive controls (DAMGO (8-32 μg) or fentanyl (0.4-0.8 μg)) or test peptides in 100 μl volume i.pl. The antinociception was measured at different time points (5 to 120 min or 5 hr to 24 hr) after drug administration. Baseline measures were taken before administering drug to confirm the development of inflammation and nociception.

GLP-1 R = target: T4, GLP-1 R (Mus musculus, UniProt O35659); experiment: GLP-1 cellular assay, cAMP stimulation (murine cell line, Cerep); format: cell-based; settings: n.c. = EC50 not calculable
T4 construct: GLP-1 (murine cell line) cellular assays
T4 sequence (O35659 22-463): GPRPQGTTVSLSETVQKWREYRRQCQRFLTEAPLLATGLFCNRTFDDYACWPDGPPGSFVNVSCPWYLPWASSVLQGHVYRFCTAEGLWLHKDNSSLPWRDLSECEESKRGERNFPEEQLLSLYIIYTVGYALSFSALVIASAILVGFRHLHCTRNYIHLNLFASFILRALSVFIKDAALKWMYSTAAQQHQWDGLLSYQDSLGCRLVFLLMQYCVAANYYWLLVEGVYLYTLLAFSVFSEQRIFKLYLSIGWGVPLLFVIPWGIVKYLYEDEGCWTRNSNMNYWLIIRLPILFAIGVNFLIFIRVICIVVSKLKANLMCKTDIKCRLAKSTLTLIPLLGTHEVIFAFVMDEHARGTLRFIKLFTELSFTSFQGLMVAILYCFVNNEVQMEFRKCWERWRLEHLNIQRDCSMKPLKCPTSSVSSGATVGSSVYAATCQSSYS
Protocol: Compounds were weighed precisely in an amount of approximately 1 mg and assayed in standard cellular assays (Cerep SA). The readout is the amount of cAMP generated in the cells treated with the test compounds, in either agonist or antagonist mode. […] The assays are described in Chicchi, G. G., et al. (1997) J Biol Chem 272: 7765-7769 and Runge, S., et al. (2003) Br J Pharmacol 138: 787-794.

db/db mice [2] = experiment: db/db mice, blood glucose after s.c. dosing; format: in vivo, mouse; settings: for Mean Blood Glucose: db/db mice, s.c., 300 nmole/kg
Protocol: The 60 female db/db B6BKS (D) Leprdb/J (strain 000697) mice for this study were approximately 8 to 9 weeks old at arrival (Jackson Laboratory, Bar Harbor, Me.). […] One group of 8 female mice served as the vehicle control and received the vehicle, 0.2% BSA in saline, pH 7.4. One additional group of 8 female mice received the positive control article, liraglutide, at a dose level of 50 nmoles/kg. The test articles, vehicle, and positive control article were administered on Day 1, at approximately 0, 7, and 24 hours during the study via subcutaneous injection at a dose volume of 6 mL/kg.
(§1) Clinical observations were conducted at receipt, prior to randomization, and daily from Days 1 to 5. Body weights were measured and recorded at receipt, prior to randomization, and daily from Days 1 to 5. Food consumption was measured and recorded daily from Days 1 to 5. Blood samples for glucose analysis were collected pretest (Day −3) and at 0, 1, 2, 4, 8, 10, 24, 48, 72, and 96 hours following the first dose on Day 1. At study termination all animals were euthanized and the carcasses were discarded without further evaluation.

db/db mice [3] = experiment: db/db mice, body weight; format: in vivo, mouse; settings: high dose (300 nmoles/kg), Days 2 and 3
Protocol: The 60 female db/db B6BKS (D) Leprdb/J (strain 000697) mice for this study were approximately 8 to 9 weeks old at arrival (Jackson Laboratory, Bar Harbor, Me.). The mice were randomized by weight and two treatment groups of 8 female mice each were administered the test articles, EU-A994, EU-A995, or EU-A1026, at dose levels of 100 or 300 nmoles/kg. One group of 8 female mice served as the vehicle control and received the vehicle, 0.2% BSA in saline, pH 7.4. One additional group of 8 female mice received the positive control article, liraglutide, at a dose level of 50 nmoles/kg. The test articles, vehicle, and positive control article were administered on Day 1, at approximately 0, 7, and 24 hours during the study via subcutaneous injection at a dose volume of 6 mL/kg.
as §1

T3 sequence (P32300 whole entry): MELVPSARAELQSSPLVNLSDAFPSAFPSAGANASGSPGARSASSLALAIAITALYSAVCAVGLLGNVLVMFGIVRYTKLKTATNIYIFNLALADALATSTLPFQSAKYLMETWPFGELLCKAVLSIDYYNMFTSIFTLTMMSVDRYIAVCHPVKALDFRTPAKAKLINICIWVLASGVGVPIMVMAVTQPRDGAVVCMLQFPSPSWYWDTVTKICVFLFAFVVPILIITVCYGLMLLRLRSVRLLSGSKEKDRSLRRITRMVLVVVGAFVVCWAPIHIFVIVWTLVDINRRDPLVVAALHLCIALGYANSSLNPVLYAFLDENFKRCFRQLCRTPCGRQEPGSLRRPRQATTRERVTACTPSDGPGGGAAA
T2 sequence (P35372 whole entry): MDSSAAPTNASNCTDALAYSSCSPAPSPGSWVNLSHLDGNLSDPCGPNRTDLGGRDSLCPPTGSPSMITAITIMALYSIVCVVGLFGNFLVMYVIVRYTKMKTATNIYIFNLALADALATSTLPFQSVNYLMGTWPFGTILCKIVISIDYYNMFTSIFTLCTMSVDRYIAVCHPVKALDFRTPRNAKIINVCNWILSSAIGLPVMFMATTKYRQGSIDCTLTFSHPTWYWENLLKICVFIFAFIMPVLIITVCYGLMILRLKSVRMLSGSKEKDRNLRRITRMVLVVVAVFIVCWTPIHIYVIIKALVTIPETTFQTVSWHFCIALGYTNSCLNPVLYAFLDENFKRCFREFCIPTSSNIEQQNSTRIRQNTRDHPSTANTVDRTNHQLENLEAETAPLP

SMILES: CCCCCCCCCCCCO[C@@H]1O[C@H](C(=O)NCCCC[C@H](NC(=O)[C@H](CCC(N)=O)NC(=O)[C@@H](NC(=O)[C@H](Cc2ccccc2)NC(=O)[C@H](CCCNC(=N)N)NC(=O)[C@H](C)NC(=O)[C@H](CCCCNC(=N)N)NC(=O)[C@H](CCC(N)=O)NC(=O)[C@H](Cc2c[nH]cn2)NC(=O)[C@H](CCCC)NC(=O)[C@H](CC(C)C)NC(=O)[C@H](CCC(N)=O)NC(=O)[C@@H](NC(=O)[C@H](CCC(=O)O)NC(=O)C(C)(C)NC(=O)[C@@H](NC(=O)C2(N)CCCC2)C(C)C)[C@@H](C)CC)[C@@H](C)CC)C(N)=O)[C@@H](O)[C@H](O)[C@H]1O [EU-203] (H-[Ac5c]V[Aib]EIQL[Nle]HQ[hArg]ARFIQK(GlcA(β-D,1-O-dodecyl))-NH2; N-terminus assumed)
- Emax (PTH receptor (PTHR1)): 146%

SMILES: CO[C@@H]1O[C@H](C(=O)NCCCC[C@H](NC(=O)[C@H](Cc2ccccc2)NC(=O)[C@@H]2Cc3ccccc3CN2C(=O)[C@@H](N)Cc2c(C)cc(O)cc2C)C(N)=O)[C@@H](O)[C@H](O)[C@H]1O [EU-A178, 2′,6′-dimethyl-L-tyrosyl-L-1,2,3,4-tetrahydroisoquinoline-3-carbonyl-L-phenylalanyl-Nε-(1′-methyl β-D-glucuronyl)-L-lysyl-amide] (H-[Dmt][Tic]FK(βGlcA(1-OMe))-NH2)
- Characterization (MOP) (mu opioid receptor): full agonistic behavior; also recorded: Pure MOP Ag;
- Characterization (DOP) (delta2 opioid receptor): pure antagonist; also recorded: pure DOP antag
- Paw Pressure Thresholds (PPT) [1]: statistically significant increases in PPT

SMILES: CCCCCCCCCCCCO[C@@H]1O[C@H](C(=O)NCCCC[C@H](NC(=O)[C@@H]2CCCCNC(=O)CC[C@H](NC(=O)[C@H](CC(=O)O)NC(=O)[C@H](CC(C)C)NC(=O)[C@H](Cc3ccc(O)cc3)NC(=O)[C@H](CCCCN)NC(=O)[C@H](CO)NC(=O)[C@H](Cc3ccc(O)cc3)NC(=O)[C@H](CC(=O)O)NC(=O)[C@H](CO)NC(=O)[C@@H](NC(=O)[C@H](Cc3ccccc3)NC(=O)[C@@H](NC(=O)CNC(=O)[C@H](CCC(N)=O)NC(=O)C(C)(C)NC(=O)[C@@H](N)Cc3c[nH]cn3)[C@@H](C)O)[C@@H](C)O)C(=O)N[C@@H](CCCNC(=N)N)C(=O)N[C@@H](C)C(=O)N[C@@H](C)C(=O)N2)C(=O)N[C@@H](Cc2ccccc2)C(=O)NC(C)(C)C(N)=O)[C@@H](O)[C@H](O)[C@H]1O [EU-A455]
- EC50 (GLP-1 R): 59 nM

SMILES: CCCCCCCCCCCCCCO[C@@H]1O[C@H](C(=O)NCCCC[C@H](NC(=O)[C@@H](NC(=O)[C@H](Cc2ccccc2)NC(=O)[C@H](CCC(=O)O)NC(=O)[C@@H]2CCCCNC(=O)CC[C@H](NC(=O)[C@H](CC(=O)O)NC(=O)[C@H](CC(C)C)NC(=O)[C@H](Cc3ccc(O)cc3)NC(=O)[C@H](CCCCN)NC(=O)[C@H](CO)NC(=O)[C@H](Cc3ccc(O)cc3)NC(=O)[C@H](CC(=O)O)NC(=O)[C@H](CO)NC(=O)[C@@H](NC(=O)[C@H](Cc3ccccc3)NC(=O)[C@@H](NC(=O)CNC(=O)[C@H](CCC(N)=O)NC(=O)C(C)(C)NC(=O)[C@@H](N)Cc3c[nH]cn3)[C@@H](C)O)[C@@H](C)O)C(=O)N[C@@H](CCC(N)=O)C(=O)N[C@@H](C)C(=O)N[C@@H](C)C(=O)N2)[C@@H](C)CC)C(=O)N[C@@H](Cc2c[nH]c3ccccc23)C(=O)N[C@@H](CC(C)C)C(=O)N[C@@H](CC(C)C)C(=O)N[C@@H](CCC(N)=O)C(=O)N[C@H](C(N)=O)[C@@H](C)O)[C@@H](O)[C@H](O)[C@H]1O [EU-A994]
- Mean Blood Glucose (db/db mice [2]; 0 hr): 554 mg/dL
- Mean Blood Glucose (db/db mice [2]; 10 hr): 242 mg/dL
- Mean Blood Glucose (db/db mice [2]; 24 hr): 209 mg/dL
- Mean Blood Glucose (db/db mice [2]; 48 hr): 385 mg/dL
- Glucose levels vs vehicle (db/db mice [2]; high dose (300 nmoles/kg), at 10 and 24 hours): significantly different from vehicle
- body weight changes against vehicle (db/db mice [3]): Significant body weight changes
